From US10752587B2, “Homobispiperidinyl derivatives as liver X receptor beta agonists, compositions and their use” (Merck Sharp & Dohme Corp., priority 2015, dated 2020)

Key:
[1] = biological target: T1, glutathione-S-transferase (GST) tagged LXRbeta LBD (ligand binding domain) (Homo sapiens, UniProt P55055); assay: LanthaScreen TR-FRET Liver X Receptor Coactivator Assay, co-activator recruitment to LXRbeta LBD; assay type: biochemical; conditions: for Emax: efficacy at max dose, in relation to reference dual agonist T0901317, read-out: LXR beta Activity @ max dose (%); for EC50: potency (Inflection Point, IP), co-activator recruitment to LXRbeta LBD, in relation to T0901317, read-out: LXR beta IP
T1 construct: purchased Invitrogen pv4658.pps
T1 sequence (P55055 222-460 limits assumed): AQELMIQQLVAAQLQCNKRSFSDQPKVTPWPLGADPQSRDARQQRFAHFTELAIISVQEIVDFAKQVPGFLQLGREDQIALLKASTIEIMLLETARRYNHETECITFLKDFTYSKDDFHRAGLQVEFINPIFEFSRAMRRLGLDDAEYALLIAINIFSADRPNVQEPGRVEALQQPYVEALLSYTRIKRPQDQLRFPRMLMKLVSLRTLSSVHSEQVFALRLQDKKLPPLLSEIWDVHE
Procedure, shortened: (§1)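 Readout is time-resolved FRET between a terbium anti-GST antibody bound to the LBD and a fluorescein-tagged coactivator peptide recruited on ligand binding. Plates were incubated at room temperature before reading. Potency (IP) and efficacy (Emax) are referenced to T0901317.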

[2] = biological target: T2, glutathione-S-transferase (GST) tagged LXRalpha LBD (ligand binding domain) (Homo sapiens, UniProt Q13133); assay: LanthaScreen TR-FRET Liver X Receptor Coactivator Assay, co-activator recruitment to LXRalpha LBD; assay type: biochemical; conditions: for Emax: efficacy at max dose, in relation to reference dual agonist T0901317, read-out: LXR alpha Activity @ max dose (%); for LXR alpha IP (nM) / EC50: potency (Inflection Point, IP), co-activator recruitment to LXRalpha LBD, in relation to T0901317; for EC50: read-out: LXR alpha IP
T2 construct: purchased Invitrogen pv4655
T2 sequence (Q13133 209-447 limits assumed): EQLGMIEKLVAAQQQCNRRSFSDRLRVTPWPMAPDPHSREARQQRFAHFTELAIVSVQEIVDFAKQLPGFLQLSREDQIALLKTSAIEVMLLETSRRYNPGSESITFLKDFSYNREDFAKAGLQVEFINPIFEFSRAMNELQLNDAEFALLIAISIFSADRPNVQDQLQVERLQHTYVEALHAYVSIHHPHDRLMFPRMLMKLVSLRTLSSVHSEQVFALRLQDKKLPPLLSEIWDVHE
Procedure, shortened: as §1

Row | SMILES | Emax [1] [%] | EC50 [1] [nM] | Emax [2] [%] | LXR alpha IP (nM) [2] | EC50 [2] [nM]
1 | CCOc1cccc([C@@](O)(C(=O)N2CCC(C)(CC3CCN(c4ccc(C(=O)N(C)C)c(Cl)c4)CC3)CC2)C(F)(F)F)c1 [Example 2-50, 2-chloro-4-[4-({1-[(2R) 2-(3-ethoxy-phenyl)-3,3,3-trifluoro-2-hydroxy-propanoyl]-4-methyl-piperidin-4-yl}methyl)piperidin-1-yl]-N,N-dimethyl-benzamide] | 29 | 8 | 0 | NO IP | 
2 | CN(C)C(=O)c1ccc(N2CCC(CC3(C)CCN(C(=O)[C@](O)(c4cccc(OC(F)(F)F)c4)C(F)(F)F)CC3)CC2)cc1Cl [Example 2-51, 2-chloro-N,N-dimethyl-4-{4-[(4-methyl-1-{(2R)-3,3,3-trifluoro-2-hydroxy-2-[3-(trifluoro-methoxy)phenyl]propanoyl}piperidin-4-yl)methyl]piperidin-1-yl}benzamide] | 57 | 32 | 11 | NO IP | 
3 | CCc1cccc([C@@](O)(C(=O)N2CCC(C)(CC3CCN(c4ccc(C(=O)N(C)C)c(Cl)c4)CC3)CC2)C(F)(F)F)c1 [Example 2-52, 2-chloro-4-[4-({1-[(2R)-2-(3-ethyl-phenyl)-3,3,3-trifluoro-2-hydroxy-propanoyl]-4-methyl-piperidin-4-yl}methyl)piperidin-1-yl]-N,N-dimethyl-benzamide] | 20 | 15 | 0 | NO IP | 
4 | CN(C)C(=O)c1ccc(N2CCC(CC3(C)CCN(C(=O)[C@](O)(c4cc(Cl)cc(Cl)c4)C(F)(F)F)CC3)CC2)cc1Cl [Example 2-53, 2-chloro-4-[4-({1-[(2R)-2-(3,5-dichloro-phenyl)-3,3,3-trifluoro-2-hydroxy-propanoyl]-4-methylpiperidin-4-yl}methyl)piperidin-1-yl]-N,N-dimethyl-benzamide] | 50 | 5 | 0 | NO IP | 
5 | CN(C)C(=O)c1ccc(N2CCC(CC3(C)CCN(C(=O)[C@](O)(c4cc(F)cc(Cl)c4)C(F)(F)F)CC3)CC2)cc1Cl [Example 2-54, 2-chloro-4-[4-({1-[(2R)-2-(3-chloro-5-fluorophenyl)-3,3,3-trifluoro-2-hydroxy-propanoyl]-4-methylpiperidin-4-yl}methyl)piperidin-1-yl]-N,N-dimethyl-benzamide] | 79 | 4 | 23 |  | 38
6 | CC(C)Oc1cccc([C@@](O)(C(=O)N2CCC(C)(CC3CCN(c4ccc(C(=O)N(C)C)c(Cl)c4)CC3)CC2)C(F)(F)F)c1 [Example 2-55, 2-chloro-N,N-dimethyl-4-{4-[(4-methyl-1-{(2R)-3,3,3-trifluoro-2-hydroxy-2-[3-(1-methyl-ethoxy)phenyl]propanoyl}piperidin-4-yl)methyl]piperidin-1-yl}benzamide] | 44 | 8 | 0 | NO IP | 
7 | CC(C)c1cccc([C@@](O)(C(=O)N2CCC(C)(CC3CCN(c4ccc(C(=O)N(C)C)c(Cl)c4)CC3)CC2)C(F)(F)F)c1 [Example 2-56, 2-chloro-N,N-dimethyl-4-{4-[(4-methyl-1-{(2R)-3,3,3-trifluoro-2-hydroxy-2-[3-(1-methylethyl)phenyl]propanoyl}piperidin-4-yl)methyl]piperidin-1-yl}benzamide] | 37 | 18 | 2 | NO IP | 
8 | CN(C)C(=O)c1ccc(N2CCC(CC3(C)CCN(C(=O)[C@](O)(c4cccc(F)c4)C(F)(F)F)CC3)CC2)cc1Cl [Example 2-57, 2-chloro-N,N-dimethyl-4-[4-({4-methyl-1-[(2R)-3,3,3-trifluoro-2-(3-fluorophenyl)-2-hydroxy-propanoyl]piperidin-4-yl}methyl)piperidin-1-yl]benzamide] | 67 | 5 | 27 |  | 37
9 | CN(C)C(=O)c1ccc(N2CCC(CC3CN(C(=O)[C@](O)(c4ccccc4)C(F)(F)F)C3)CC2)cc1Cl [Example 2-58, 2-chloro-N,N-dimethyl-4-[4-({1-[(2R)-3,3,3-trifluoro-2-hydroxy-2-phenylpropanoyl]azetidin-3-yl}methyl)piperidin-1-yl]benzamide] | 88 | 16 | 38 |  | 951
10 | COc1cccc([C@@](O)(C(=O)N2CC(CC3CCN(c4ccc(C(=O)N(C)C)c(Cl)c4)CC3)C2)C(F)(F)F)c1 [Example 2-59, 2-chloro-N,N-dimethyl-4-[4-({1-[(2R)-3,3,3-trifluoro-2-hydroxy-2-(3-methoxyphenyl)propanoyl]azetidin-3-yl}methyl)piperidin-1-yl]benzamide] | 62 | 18 | 3 | NO IP | 
11 | CC(C)Oc1cccc([C@@](O)(C(=O)N2CC(CC3CCN(c4ccc(C(=O)N(C)C)c(Cl)c4)CC3)C2)C(F)(F)F)c1 [Example 2-60, 2-chloro-N,N-dimethyl-4-{4-[(1-{(2R)-3,3,3-trifluoro-2-hydroxy-2-[3-(1-methyl-ethoxy)phenyl]propanoyl}azetidin-3-yl)methyl]piperidin-1-yl}benzamide] | 66 | 26 | 2 | NO IP | 
12 | COc1cc(F)cc([C@@](O)(C(=O)N2CC(CC3CCN(c4ccc(C(=O)N(C)C)c(Cl)c4)CC3)C2)C(F)(F)F)c1 [Example 2-61, 2-chloro-N,N-dimethyl-4-[4-({1-[(2R)-3,3,3-trifluoro-2-(3-fluoro-5-methoxyphenyl)-2-hydroxy-propanoyl]azetidin-3-yl}methyl)piperidin-1-yl]benzamide] | 74 | 7 | 21 |  | 277
13 | CCOc1cccc([C@@](O)(C(=O)N2CC(CC3CCN(c4ccc(C(=O)N(C)C)c(Cl)c4)CC3)C2)C(F)(F)F)c1 [Example 2-62, 2-chloro-4-[4-({1-[(2R)-2-(3-ethoxy-phenyl)-3,3,3-trifluoro-2-hydroxy-propanoyl]azetidin-3-yl}methyl)piperidin-1-yl]-N,N-dimethyl-benzamide] | 71 | 20 | 0 | NO IP | 
14 | CN(C)C(=O)c1ccc(N2CCC(CC3CN(C(=O)[C@](O)(c4cccc(OC(F)(F)F)c4)C(F)(F)F)C3)CC2)cc1Cl [Example 2-63, 2-chloro-N,N-dimethyl-4-{4-[(1-{(2R)-3,3,3-trifluoro-2-hydroxy-2-[3-(trifluoro-methoxy)phenyl]propanoyl}azetidin-3-yl)methyl]piperidin-1-yl}benzamide] | 79 | 21 | 22 |  | 1510
15 | CCc1cccc([C@@](O)(C(=O)N2CC(CC3CCN(c4ccc(C(=O)N(C)C)c(Cl)c4)CC3)C2)C(F)(F)F)c1 [Example 2-64, 2-chloro-4-[4-({1-[(2R)-2-(3-ethyl-phenyl)-3,3,3-trifluoro-2-hydroxy-propanoyl]azetidin-3-yl}methyl)piperidin-1-yl]-N,N-dimethyl-benzamide] | 75 | 30 | 18 |  | 1070
16 | CN(C)C(=O)c1ccc(N2CCC(CC3CN(C(=O)C(O)(c4cccc(Cl)c4)C(F)(F)F)C3)CC2)cc1Cl (stereo not drawn) [Example 2-65, 2-chloro-4-[4-({1-[2-(3-chlorophenyl)-3,3,3-trifluoro-2-hydroxy-propanoyl]azetidin-3-yl}methyl)piperidin-1-yl]-N,N-dimethyl-benzamide] | 89 | 17 | 35 |  | 694
17 | CN(C)C(=O)c1ccc(N2CCC(CC3CN(C(=O)C(O)(c4cccc(C(F)(F)F)c4)C(F)(F)F)C3)CC2)cc1Cl (stereo not drawn) [Example 2-66, 2-chloro-N,N-dimethyl-4-{4-[(1-{3,3,3-trifluoro-2-hydroxy-2-[3-(trifluoromethyl)phenyl]propanoyl}azetidin-3-yl)methyl]piperidin-1-yl}benzamide] | 69 | 50 | 14 | NO IP | 
18 | CN(C)C(=O)c1ccc(N2CCC(CC3CN(C(=O)[C@](O)(c4cc(Cl)cc(Cl)c4)C(F)(F)F)C3)CC2)cc1Cl [Example 2-67, 2-chloro-4-[4-({1-[(2R)-2-(3,5-dichloro-phenyl)-3,3,3-trifluoro-2-hydroxy-propanoyl]azetidin-3-yl}methyl)piperidin-1-yl]-N,N-dimethyl-benzamide] | 77 | 19 | 9 | NO IP | 
